Key:
female mice = conditions: single bolus iv injection; cited from earlier work
[1] = tested on: advanced or metastatic androgen refractory prostate cancer
Procedure: OBJECTIVE: In the present phase I clinical and pharmacokinetic (PK) study the toxicity profiles PK and anti-tumour activity of KF are investigated. METHODS: KF is administered as an intravenous infusion over one hour, during five consecutive days every three weeks in patients with advanced or metastatic androgen refractory prostate cancer. On the basis of the MTD values defined in mice, a starting dose of 20 μg/m2/day was selected, which is equivalent to a total dose of 100 μg/m2. PK of KF were determined in plasma during the first course. Bioanalysis of KF was performed by LC-MS/MS. LDH, AF and especially PSA levels of each patient were also evaluated during the study to determine the activity of KF. […] One patient per level was entered at 20, 40, 80 and 160 μg/m2/day. […] The first patient of this study was re-entered at this dose level.

solid tumours = tested on: solid tumours
Procedure: KHF-A-002-01. Phase I Clinical and Pharmacokinetic study to determine the safety of Kahalalide F administered as a weekly infusion over 1 hour in patients with solid tumours.
This trial was addressed to any solid tumours and was designed as a classical escalation. […] One cycle in this trial means a week, so 4 cycles mean 1 month of treatment.

[2] = tested on: patients with advanced or metastatic prostate cancer; experiment: Phase I trial KHF-A-001-00: safety of kahalalide F daily x 5 over 1 hour infusion every 21 days; assay type: in vivo, human
Source text: The rate of subject entry and escalation to the next dose level will depend upon assessment of the safety profile of patients entered at each dose level. Toxicity will be evaluated and graded according to the Common Toxicity Criteria, version 2.0.
In order to minimize the number of patients treated at the subtoxic dose levels, a single patient will be treated per dose level with 100% dose escalation in the absence of any toxicity G2 (excluding alopecia) during their first course of treatment. After the occurrence of grade 2 toxicity (excluding asthenia, alopecia, nausea and vomiting or anemia), the dose level is expanded to three patients with only 50% incremental increase in dosage in advancing to the next dose level. For the occurrence of grade 3 non-hematological toxic effects the dose level should be expanded up to six patients. This second cohort of 3 patients will be included consecutively. If the first or second patient develops dose limiting toxicities no further patients will be treated at this dose level, it will be defined as MTD and the accrual will begin at a lower dose level. If only one DLT occurs at this dose level another 3 patients will be included at the next dose level with an increase of 25% only.
There is no intrapatient dose escalation, only de-escalation. If the toxicity is grade 3 or worse in a course of chemotherapy, then the dose is reduced one level for the next course.
The maximum tolerated dose (MTD) is defined as the dose at which at least 2 out of 3 or more than 3 patients experience DLT. However, it is possible that additional patients may experience DLT due to the timing of patient enrollment into that dose level.
Dose limiting toxicities (DLTs) are defined as follows: […]
Grade IV Neutropenia lasting for >5 days or with a temperature >38.5.
Grade IV thrombocytopenia.
Any other grade III or IV non hematological toxicity, excluding nausea, emesis and hypersensitivity reactions.
Grade III or IV liver toxicity if not reversible by day 21.
These toxicities are only considered DLTs if they happen during cycle 1. […]
A dose of 20 mcg/m2 was considered a safe starting dose on the basis of acute toxicity studies in animals. The trial was designed as an accelerated dose escalation (pharmacokinetically guided).

[3] = 400 mcg/m2 weekly, 6 months (24 cycles)
[4] = 19 patients, daily x5 every 21 days, all dose levels
[5] = 20 patients, daily x5 every 21 days, all dose levels
[6] = 20 patients, daily x5 every 21 days, all dose levels, calcium adjusted
[7] = 20 patients, daily x5 every 21 days, all dose levels, not drug-related

Structure (SMILES): C/C=C1\NC(=O)[C@H](Cc2ccccc2)NC(=O)[C@@H](C(C)C)NC(=O)[C@@H](C(C)CC)NC(=O)[C@H](NC(=O)C(NC(=O)[C@H](CCCN)NC(=O)[C@H]2CCCN2C(=O)[C@H](NC(=O)[C@@H](NC(=O)[C@@H](NC(=O)[C@H](NC(=O)CCCC(C)C)C(C)C)C(C)O)C(C)C)C(C)C)C(C)CC)C(C)OC(=O)[C@H](C(C)C)NC1=O (single isomer, unassigned) [kahalalide F]
- maximum tolerated dose (MTD) (female mice): 0.28 mg/kg
- decrease in PSA level ([1]; one patient, associated with pain relief, preliminary report): > 50%
- response evaluated by PSA, one patient ([1]; patient received 8 cycles, clinical improvement): partial response
- PSA change in two additional patients ([1]; preliminary report): minor PSA reductions
- concentration from which active in the clonogenic tumour assay (prostate cancer): ≥ 15 ng/mL
- overall response in a patient with hepatocellular carcinoma (solid tumours; [3]): stable disease
- response in a patient with hepatocellular carcinoma (target lesion) (solid tumours; [3]): Partial response in one target lesion
- efficacy in a patient with epidermoid carcinoma of the cavum (solid tumours; 400 mcg/m2 weekly, ORL exploration): Subjective improvement and non evaluable response
- efficacy in a patient with non small cell lung cancer (solid tumours; 530 mcg/m2 weekly, 4 months (16 infusions)): without evidence of progression disease
- Efficacy (tumour type with hints of efficacy) (solid tumours; Level III, dose 530 weekly): NSCLC
- efficacy in one patient with peritoneal mesothelioma (solid tumours; weekly schedule): clinical benefit with reduction of ascytes volume
- only drug related toxicity to date ([2]; 320 μg/m2/day, rapidly reversible, preliminary report, 7 patients): CTC grade 3 ASAT
- Hematologic toxicity (worst per patient): Hemoglobin, Grade 1 [2, 4]: 63.2%
- Hematologic toxicity (worst per patient): Hemoglobin, Grade 2 [2, 4]: 26.3%
- Hematologic toxicity (worst per patient): Hemoglobin, Grade 3 [2, 4]: 0%
- Hematologic toxicity (worst per patient): Hemoglobin, Grade 4 [2, 4]: 0%
- Hematologic toxicity (worst per patient): Leukocytes, Grade 1 [2, 4]: 10.5%
- Hematologic toxicity (worst per patient): Leukocytes, Grade 2 [2, 4]: 0%
- Hematologic toxicity (worst per patient): Leukocytes, Grade 3 [2, 4]: 0%
- Hematologic toxicity (worst per patient): Leukocytes, Grade 4 [2, 4]: 0%
- Hematologic toxicity (worst per patient): Neutrophils, Grade 1 [2, 4]: 5%
- Hematologic toxicity (worst per patient): Neutrophils, Grade 2 [2, 4]: 5%
- Hematologic toxicity (worst per patient): Neutrophils, Grade 3 [2, 4]: 0%
- Hematologic toxicity (worst per patient): Neutrophils, Grade 4 [2, 4]: 0%
- Hematologic toxicity (worst per patient): Platelets, Grade 1 [2, 4]: 21.1%
- Hematologic toxicity (worst per patient): Platelets, Grade 2 [2, 4]: 0%
- Hematologic toxicity (worst per patient): Platelets, Grade 3 [2, 4]: 0%
- Hematologic toxicity (worst per patient): Platelets, Grade 4 [2, 4]: 0%
- Most frequently reported non-hematologic toxicities: Diarrhea, Grade 1 [2, 5]: 10
- Most frequently reported non-hematologic toxicities: Diarrhea, Grade 2 [2, 5]: 5
- Most frequently reported non-hematologic toxicities: Diarrhea, Grade 3 [2, 5]: 0
- Most frequently reported non-hematologic toxicities: Diarrhea, Grade 4 [2, 5]: 0
- Most frequently reported non-hematologic toxicities: Fatigue, Grade 1 [2, 5]: 35
- Most frequently reported non-hematologic toxicities: Fatigue, Grade 2 [2, 5]: 10
- Most frequently reported non-hematologic toxicities: Fatigue, Grade 3 [2, 5]: 25
- Most frequently reported non-hematologic toxicities: Fatigue, Grade 4 [2, 5]: 0
- Most frequently reported non-hematologic toxicities: Hypersensitivity, Grade 1 [2, 5]: 20
- Most frequently reported non-hematologic toxicities: Hypersensitivity, Grade 2 [2, 5]: 5
- Most frequently reported non-hematologic toxicities: Hypersensitivity, Grade 3 [2, 5]: 0
- Most frequently reported non-hematologic toxicities: Hypersensitivity, Grade 4 [2, 5]: 0
- Most frequently reported non-hematologic toxicities: Inject-site reaction, Grade 1 [2, 5]: 10
- Most frequently reported non-hematologic toxicities: Inject-site reaction, Grade 2 [2, 5]: 20
- Most frequently reported non-hematologic toxicities: Inject-site reaction, Grade 3 [2, 5]: 0
- Most frequently reported non-hematologic toxicities: Inject-site reaction, Grade 4 [2, 5]: 0
- Most frequently reported non-hematologic toxicities: Nausea, Grade 1 [2, 5]: 15
- Most frequently reported non-hematologic toxicities: Nausea, Grade 2 [2, 5]: 10
- Most frequently reported non-hematologic toxicities: Nausea, Grade 3 [2, 5]: 0
- Most frequently reported non-hematologic toxicities: Nausea, Grade 4 [2, 5]: 0
- Most frequently reported non-hematologic toxicities: Periph-sens neuro, Grade 1 [2, 5]: 20
- Most frequently reported non-hematologic toxicities: Periph-sens neuro, Grade 2 [2, 5]: 0
- Most frequently reported non-hematologic toxicities: Periph-sens neuro, Grade 3 [2, 5]: 5
- Most frequently reported non-hematologic toxicities: Periph-sens neuro, Grade 4 [2, 5]: 0
- Most frequently reported non-hematologic toxicities: Vomiting, Grade 1 [2, 5]: 15
- Most frequently reported non-hematologic toxicities: Vomiting, Grade 2 [2, 5]: 10
- Most frequently reported non-hematologic toxicities: Vomiting, Grade 3 [2, 5]: 0
- Most frequently reported non-hematologic toxicities: Vomiting, Grade 4 [2, 5]: 0
- Non-hematologic toxicity, lab abnormalities per patient: Albumin, Grade 1 [2, 5]: 30%
- Non-hematologic toxicity, lab abnormalities per patient: Albumin, Grade 2 [2, 5]: 10%
- Non-hematologic toxicity, lab abnormalities per patient: Albumin, Grade 3 [2, 5]: 5%
- Non-hematologic toxicity, lab abnormalities per patient: Albumin, Grade 4 [2, 5]: 0%
- Non-hematologic toxicity, lab abnormalities per patient: Bilirubin, Grade 1 [2, 5]: 10%
- Non-hematologic toxicity, lab abnormalities per patient: Bilirubin, Grade 2 [2, 5]: 0%
- Non-hematologic toxicity, lab abnormalities per patient: Bilirubin, Grade 3 [2, 5]: 0%
- Non-hematologic toxicity, lab abnormalities per patient: Bilirubin, Grade 4 [2, 5]: 0%
- Non-hematologic toxicity, lab abnormalities per patient: CPK, Grade 1 [2, 5]: 35%
- Non-hematologic toxicity, lab abnormalities per patient: CPK, Grade 2 [2, 5]: 0%
- Non-hematologic toxicity, lab abnormalities per patient: CPK, Grade 3 [2, 5]: 0%
- Non-hematologic toxicity, lab abnormalities per patient: CPK, Grade 4 [2, 5]: 0%
- Non-hematologic toxicity, lab abnormalities per patient: Creatinine, Grade 1 [2, 5]: 35%
- Non-hematologic toxicity, lab abnormalities per patient: Creatinine, Grade 2 [2, 5]: 0%
- Non-hematologic toxicity, lab abnormalities per patient: Creatinine, Grade 3 [2, 5]: 0%
- Non-hematologic toxicity, lab abnormalities per patient: Creatinine, Grade 4 [2, 5]: 0%
- Non-hematologic toxicity, lab abnormalities per patient: GGT, Grade 1 [2, 5]: 35%
- Non-hematologic toxicity, lab abnormalities per patient: GGT, Grade 2 [2, 5]: 15%
- Non-hematologic toxicity, lab abnormalities per patient: GGT, Grade 3 [2, 5]: 25%
- Non-hematologic toxicity, lab abnormalities per patient: GGT, Grade 4 [2, 5]: 5%
- Non-hematologic toxicity, lab abnormalities per patient: GOT, Grade 1 [2, 5]: 40%
- Non-hematologic toxicity, lab abnormalities per patient: GOT, Grade 2 [2, 5]: 15%
- Non-hematologic toxicity, lab abnormalities per patient: GOT, Grade 3 [2, 5]: 15%
- Non-hematologic toxicity, lab abnormalities per patient: GOT, Grade 4 [2, 5]: 10%
- Non-hematologic toxicity, lab abnormalities per patient: GPT, Grade 1 [2, 5]: 15%
- Non-hematologic toxicity, lab abnormalities per patient: GPT, Grade 2 [2, 5]: 25%
- Non-hematologic toxicity, lab abnormalities per patient: GPT, Grade 3 [2, 5]: 20%
- Non-hematologic toxicity, lab abnormalities per patient: GPT, Grade 4 [2, 5]: 10%
- Non-hematologic toxicity, lab abnormalities per patient: Hypo P, Grade 1 [2, 5]: 10%
- Non-hematologic toxicity, lab abnormalities per patient: Hypo P, Grade 2 [2, 5]: 15%
- Non-hematologic toxicity, lab abnormalities per patient: Hypo P, Grade 3 [2, 5]: 0%
- Non-hematologic toxicity, lab abnormalities per patient: Hypo P, Grade 4 [2, 5]: 0%
- Non-hematologic toxicity, lab abnormalities per patient: HypoK+, Grade 1 [2, 5]: 20%
- Non-hematologic toxicity, lab abnormalities per patient: HypoK+, Grade 2 [2, 5]: 0%
- Non-hematologic toxicity, lab abnormalities per patient: HypoK+, Grade 3 [2, 5]: 0%
- Non-hematologic toxicity, lab abnormalities per patient: HypoK+, Grade 4 [2, 5]: 0%
- Non-hematologic toxicity, lab abnormalities per patient: HypoNa+, Grade 1 [2, 5]: 10%
- Non-hematologic toxicity, lab abnormalities per patient: HypoNa+, Grade 2 [2, 5]: 0%
- Non-hematologic toxicity, lab abnormalities per patient: HypoNa+, Grade 3 [2, 5]: 5%
- Non-hematologic toxicity, lab abnormalities per patient: HypoNa+, Grade 4 [2, 5]: 5%
- Non-hematologic toxicity, lab abnormalities per patient: HypoCa*, Grade 1 [2, 6]: 65%
- Non-hematologic toxicity, lab abnormalities per patient: HypoCa*, Grade 2 [2, 6]: 0%
- Non-hematologic toxicity, lab abnormalities per patient: HypoCa*, Grade 3 [2, 6]: 0%
- Non-hematologic toxicity, lab abnormalities per patient: HypoCa*, Grade 4 [2, 6]: 0%
- Most frequently reported non-hematologic toxicities: Hypertension, Grade 1 [2, 7]: 0
- Most frequently reported non-hematologic toxicities: Hypertension, Grade 2 [2, 7]: 0
- Most frequently reported non-hematologic toxicities: Hypertension, Grade 3 [2, 7]: 15
- Most frequently reported non-hematologic toxicities: Hypertension, Grade 4 [2, 7]: 0
- Non-hematologic toxicity, lab abnormalities per patient: Alk. phosphatase, Grade 1 [2, 7]: 35%
- Non-hematologic toxicity, lab abnormalities per patient: Alk. phosphatase, Grade 2 [2, 7]: 20%
- Non-hematologic toxicity, lab abnormalities per patient: Alk. phosphatase, Grade 3 [2, 7]: 25%
- Non-hematologic toxicity, lab abnormalities per patient: Alk. phosphatase, Grade 4 [2, 7]: 5%
- Worst toxicity ([2]; Level I, dose 20 mcg/m2, 1 patient): none
- Worst toxicity ([2]; Level II, dose 40, 1 patient): none
- Worst toxicity ([2]; Level III, dose 80, 1 patient): none
- Worst toxicity ([2]; Level IV, dose 160, 1 patient): none
- Worst toxicity ([2]; Level VI, dose 425, 3 patients): none
- Worst toxicity ([2]; Level VIII, dose 700, 3 patients): none
- hematological toxicity ([2]; daily x5 schedule): no hematological toxicity was seen
- most commonly seen liver toxicity in the MTD ([2]; daily x5 schedule): grade 4 transaminases elevation

Reference: patent publication US20050054555A1, “Kahalalide compounds for use in cancer therapy” (priority 2001, published 2005)
